According to patent US4650753A, “Novel substrates for use in measuring the concentration of kallikrein in urine” (Nitto Boseki Co., Ltd., priority 1984, dated 1987):

Key:
Thrombin (TH) = molecular target: T1, Thrombin (TH) (Bos taurus, UniProt P00735); experiment: Substrate specificity test: hydrolysis by thrombin, colorimetric; format: biochemical, Bovine; settings: for Absorbance (O.D.), TH: 700 nm (CHA substrate, pentacyanoamineferroate), S0 = 0.4 m mole, pH 8.5, 37° C., 5 minutes, 4.0 NIH/ml enzyme
T1 construct: purchased Mochida Pharmaceutical Co., Ltd. Lot No. 65146
Method: (§1) The specificities of newly synthesized substrates were tested by reacting each of them with various enzymes as follows.
(§2) (1) Substrate solution: 2 m moles/liter.H2 O
(§3) (2) Buffer solutions: 50 m moles of tris(hydroxymethyl)aminomethane/hydrochloric acid buffer solution and 150 m moles/liter of NaCl solution were used, and the reaction pH were specified with respect to the enzymes as follows. […]
(§4) (4) Reaction stopper (PNA): 10%-acetic acid
(§5) (5) Chromogenic reagent (CHA): Pentacyanoamineferroate
(§6) (6) Method of determination:
(§7) 0.3 Milliliter of the buffer solution and 0.1 ml of the enzyme reagent were taken in a hard glass test tube of which surface being treated with silicone, or a plastic test tube and preheated in a thermostat at 37° C. for 5 minutes so as to conduct the enzymatic reaction. Precisely 5 minutes after the reaction was started, 2.0 ml of reaction stopper solution or reaction terminating chromogenic reagent was added to terminate the enzymatic reaction. After the enzymatic reaction was completed, the reaction mixture was allowed to stand at 37° C. for 10 minutes, and then the absorbance at 405 nm or 700 nm was measured.

Plasmin (PL) = molecular target: T2, Plasmin (PL) (Homo sapiens, UniProt P00747); experiment: Substrate specificity test: hydrolysis by plasmin, colorimetric; format: biochemical; settings: for Absorbance (O.D.), PL: 700 nm (CHA substrate, pentacyanoamineferroate), S0 = 0.4 m mole, pH 7.8, 37° C., 5 minutes, 0.25 CU/ml enzyme
T2 construct: purchased The Green Cross Corporation Lot No. PL-35
T2 sequence (P00747 581-810 limits assumed): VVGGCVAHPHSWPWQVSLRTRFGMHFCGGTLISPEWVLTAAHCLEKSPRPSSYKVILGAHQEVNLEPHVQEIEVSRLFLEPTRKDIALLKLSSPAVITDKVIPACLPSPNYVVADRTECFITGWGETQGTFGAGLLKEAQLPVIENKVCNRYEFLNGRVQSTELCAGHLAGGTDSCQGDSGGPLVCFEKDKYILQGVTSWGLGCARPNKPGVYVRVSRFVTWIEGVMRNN
T2 sequence (P00747 97-580 partner limits assumed): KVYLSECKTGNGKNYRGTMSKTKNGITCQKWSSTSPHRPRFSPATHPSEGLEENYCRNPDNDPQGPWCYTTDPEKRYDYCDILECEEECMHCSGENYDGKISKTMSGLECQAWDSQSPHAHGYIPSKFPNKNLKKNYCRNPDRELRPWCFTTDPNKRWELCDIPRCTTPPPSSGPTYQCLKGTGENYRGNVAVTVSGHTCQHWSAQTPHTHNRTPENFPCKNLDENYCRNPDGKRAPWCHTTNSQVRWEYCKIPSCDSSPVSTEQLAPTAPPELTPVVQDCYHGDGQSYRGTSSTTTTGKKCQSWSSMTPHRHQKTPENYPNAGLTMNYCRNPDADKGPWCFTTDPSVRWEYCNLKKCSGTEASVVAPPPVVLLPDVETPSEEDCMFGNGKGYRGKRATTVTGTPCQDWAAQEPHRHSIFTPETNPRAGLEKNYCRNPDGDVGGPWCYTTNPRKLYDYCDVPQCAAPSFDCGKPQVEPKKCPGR
Method: as §1, §2, §3, §4, §5, §6, §7

[1] = molecular target: T3, Human kallikrein in urine (HUK) (Homo sapiens, UniProt P06870); experiment: Substrate specificity test: hydrolysis by human kallikrein in urine, colorimetric; format: biochemical; settings: for Absorbance (O.D.), HUK: 700 nm (CHA substrate, pentacyanoamineferroate), S0 = 0.4 m mole, pH 9.0, 37° C., 5 minutes, 0.1 U/ml enzyme
T3 construct: purchased The Green Cross Corporation Lot No. Y1003SM
T3 sequence (P06870 25-262): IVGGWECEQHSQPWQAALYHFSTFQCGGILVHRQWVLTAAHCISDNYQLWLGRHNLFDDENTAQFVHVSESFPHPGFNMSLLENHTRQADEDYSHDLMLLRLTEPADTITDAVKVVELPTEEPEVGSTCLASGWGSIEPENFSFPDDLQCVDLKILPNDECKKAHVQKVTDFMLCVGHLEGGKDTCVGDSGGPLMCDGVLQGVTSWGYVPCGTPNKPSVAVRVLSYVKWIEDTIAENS
Method: as §1, §2, §3, §4, §5, §6, §7

Urokinase (UK) = molecular target: T4, Urokinase (UK) (Homo sapiens, UniProt P00749); experiment: Substrate specificity test: hydrolysis by urokinase, colorimetric; format: biochemical; settings: for Absorbance (O.D.), UK: 700 nm (CHA substrate, pentacyanoamineferroate), S0 = 0.4 m mole, pH 8.2, 37° C., 5 minutes, 1000 U/ml enzyme
T4 construct: purchased Mochida Pharmaceutical Co., Ltd. Lot No. 2C239
Method: as §1, §2, §3, §4, §5, §6, §7

[2] = PS-2103N given as 100, S0 = 0.4 m mol

Substance | Absorbance (O.D.), TH (Thrombin (TH)) | Absorbance (O.D.), PL (Plasmin (PL)) | Absorbance (O.D.), HUK [1] | Absorbance (O.D.), UK (Urokinase (UK)) | Relative reactivity to enzymes, TH (Thrombin (TH); [2]) | reactivity to thrombin (Thrombin (TH); relative to PS-2103N = 100) | Relative reactivity to enzymes, PL (Plasmin (PL); [2]) | reactivity to plasmin (Plasmin (PL); relative to PS-2103N = 100) | Relative reactivity to enzymes, HUK [1, 2] | Relative reactivity to enzymes, UK (Urokinase (UK); [2]) | reactivity to urokinase (Urokinase (UK); relative to PS-2103N = 100)
H-D-Pro-Phe-Arg-CHA [PS-2100] | 0.016 OD | 0.014 OD | 0.244 OD | 0.003 OD |  |  |  |  |  |  | 
H-D-PGlu-Phe-Arg-CHA [PS-2102] | 0.005 OD | 0.016 OD | 0.128 OD | 0.0 OD |  |  |  |  |  |  | 
H-D-Ala-Phe-Arg-CHA [PS-2103] | 0.007 OD | 0.011 OD | 0.599 OD | 0.0 OD | 7 | 7% | 4 | 4% | 242 | 0 | 0%
